Experimental data as given in patent US20170095512A1, “METHODS OF INDUCING MYELINATION AND MATURATION OF OLIGODENDROCYTES” (KADIMASTEM LTD., priority 2014, published 2017).

Test system: glial progenitor cells derived from human ES cells (Olig2 positive cells)
Assay: hOPC differentiation assay, Olig2 positive cells (immunostaining, high content screening)
Format: cell-based
Details: PDGF 20 ng/ml added during LDN-193189 dose-response assay, 21 days
Description: In order to initiate differentiation 20,000 GPCs were seeded in each well of Matrigel coated plates of 96 wells, or on PolyD-Lysine/laminin (PDL/lam)-coated 96 well plates. Cells were grown in GM media for two to three days. Then GM was replaced by differentiation medium without growth factors, (DMEM/F12, 1% B27, 0.5% N2, Vitamin C (Sigma, 50 ug/ml). Differentiation medium was supplemented with the following tested compounds: […] All media were replaced every other day. The oligodendrocyte lineage cells were characterized by the expression of a transcription factor olig2. The rabbit polyclonal AB anti olig2 (Millipore cat AB9610) was added to PFA fixed cells. […] The fixed cells were washed three times in blocking solution, olig2 diluted 1/500, in blocking solution, was added for 1 hour. The fixed cells were washed with PBS 3 times and goat anti rabbit Alexa Fluor 568 1/500 in PBS was added for 45 minutes. The fixed cells were washed three times. ArrayScan VTI HCS reader system (Cellomis, Thermo-scientific) was used for scanning at least 20 fields for each tested well under 10× objective in both assays (differentiation and myelination). Cellomics Neural profiling bio-application was used for processing and analyzing the images. For differentiation assay, the following parameters were tested: number and percentage of O4+ cells, number of processes, processes length and number of branching points. For myelination assay, the same morphological parameters were tested and in addition: areas of myelinated axons in pixels (MBP&NF overlap area) and Number of myelinated regions (MBP&NF overlap count) were also analyzed. Modifications in the Neuro-profiling bio-application were conducted for this specific purpose. T-test analysis was used to compare between treatments. The 4-parameter Hill-Slope curve fittings were generated by GraphPad Prism software using least squares fitting method and EC50 values were calculated. […] The cells at passage five were cultured for three days with GM on 96 well plates and after fixation, cells were reacted with anti-olig2 Ab, and olig2 positive cells and nuclei were scanned in the Thermo Scientific™ ArrayScan™ XTI High Content Analysis (HCA) Reader and counted with the neural profiling program. On the other hand the cells surface antigens O4 and PDGFRa were detected on dissociated cells after fixation and reaction with O4 Ab conjugated to APC, anti PDGFRa PE, as well as A2B5 PE all obtained from BD. Flow cytometry was conducted in BD FACS Canto II. […] Time points used for analysis are 21, 28, 35 and 42 days of differentiation, for each time point 20 fields were analyzed. […] In this experiment, cells at passage 4 were pretreated in differentiation medium with Noggin for 14 days, and split before seeding on 96 well plates.

Substance: PDGF: human recombinant PDGFAA (R&D)
- number of olig2 positive cells on addition of PDGF: increases the number of olig2 positive cells about two folds
